Reference: PMC8915595, “Revisiting the application of Immobilized Artificial Membrane (IAM) chromatography to estimate in vivo distribution properties of drug discovery compounds based on the model of marketed drugs” (ADMET & DMPK, 2020)

Assays:
[1] = cited from earlier work; for CHI (IAM) from ref [13]: reference CHI (IAM), old columns
[2] = target: T1, human serum albumin (HSA) (Homo sapiens, UniProt P02768); experiment: Protein binding on chemically bonded HSA column (Chiralpak-HSA); conditions: remeasured in this study, pH 7.4
T1 sequence (P02768 25-609): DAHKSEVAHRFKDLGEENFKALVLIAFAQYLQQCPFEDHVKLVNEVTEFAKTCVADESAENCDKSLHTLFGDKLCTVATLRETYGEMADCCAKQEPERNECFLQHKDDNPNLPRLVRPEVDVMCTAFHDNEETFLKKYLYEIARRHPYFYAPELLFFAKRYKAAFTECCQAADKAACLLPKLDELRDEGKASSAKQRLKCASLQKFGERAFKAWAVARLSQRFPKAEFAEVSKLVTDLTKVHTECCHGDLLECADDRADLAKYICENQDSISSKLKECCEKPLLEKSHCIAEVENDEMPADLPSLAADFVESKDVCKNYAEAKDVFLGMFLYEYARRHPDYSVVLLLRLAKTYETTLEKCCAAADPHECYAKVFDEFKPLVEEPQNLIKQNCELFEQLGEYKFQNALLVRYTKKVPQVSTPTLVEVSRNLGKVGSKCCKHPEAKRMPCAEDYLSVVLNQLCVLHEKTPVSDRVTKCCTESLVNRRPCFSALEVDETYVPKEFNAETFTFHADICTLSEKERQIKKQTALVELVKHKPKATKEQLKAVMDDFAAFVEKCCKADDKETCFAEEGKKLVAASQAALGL
Procedure: Mobile phase A was 50 mM ammonium acetate adjusted to pH 7.4 and mobile phase B was 2-propanol. The flow rate was 1.5 mL/min and the run time was 6 min. The 2-propanol gradient was applied from 0 to 35% from 0 to 3.00 min and kept at 35% until 4.00 min.

[3] = IAM chromatography on new IAM.PC.DD2 columns (gradient HPLC, CHI (IAM)); assay type: physicochemical; design: key to CHI (IAM) “new” / P20511-014-3 CHI (IAM): CHI (IAM) from retention times calibrated to predefined CHI standards; conditions: for P20511-014-3 CHI (IAM): new IAM.PC.DD2 column batch P20511-014-3, pH 7.4; for R20511-014-3 CHI (IAM): new IAM.PC.DD2 column batch R20511-014-3, pH 7.4; for CHI (IAM) deviation between reference and new IAM.PC.DD2 columns / CHI (IAM) “new”: system suitability test compounds; for CHI (IAM) “new”: new IAM.PC.DD2 columns, pH 7.4
Procedure: The IAM binding was measured using IAM.PC.DD2 HPLC columns (Regis Technologies, Inc., IL, USA) with dimensions of 100 x 4.6 mm, particle size 10 μm with 300 Å pore size.
Two batches of IAM.PC.DD2 columns were studied (R20511-014-3 and P20511-014-3) that had been prepared using the new batches of silica support.
The retention times were standardized using the IAM calibration mixture, containing octanophenone, heptanophenone, hexanophenone, valerophenone, butyrophenone, propiophenone, acetophenone, acetanilide and paracetamol. The retention times of the compounds were plotted against the isocratically determined and predefined CHI (IAM) values listed in Table 1. The slope and intercept of the obtained straight line was used to calculate the CHI IAM values of new compounds.

[4] = human
[5] = target: T1, human serum albumin (HSA); conditions: cited from earlier work

| SMILES | CHI (IAM) from ref [13] [1] | log K HSA [2] | outlier in correlation of reference CHI (IAM) with CHI (IAM) on column R20511-014-3 ([3]; lower CHI (IAM) on new batches, outlier if difference greater than 7.2 CHI IAM units) | P20511-014-3 CHI (IAM) [3] | R20511-014-3 CHI (IAM) [3] | reference log Vdss [4] | log K HSA from ref [13] [5] | CHI (IAM) ([1]; previously published, IAM column manufactured 2004-2012) | CHI (IAM) deviation between reference and new IAM.PC.DD2 columns [3] | CHI (IAM) “new” [3] |
| --- | --- | --- | --- | --- | --- | --- | --- | --- | --- | --- |
| CC(C)NCC(O)COc1cccc2[nH]ccc12 (centres unmarked) [Pindolol] | 42.00 | 2.40 | outliers | 25.31 | 25.69 | 0.85 | 1.81 |  |  |  |
| CC(=O)CCCCn1c(=O)c2c(ncn2C)n(C)c1=O [Pentoxifylline] | 12.00 | 4.03 |  | 13.87 | 14.04 | -0.1 | 3.27 |  |  |  |
| Cc1cc(C)nc(NS(=O)(=O)c2ccc(N)cc2)n1 [Sulphadimidine] | 34.55 | 1.72 |  | 11.09 | 10.89 | 0.22 | 0.75 | 34.6 |  |  |
| O=C1NC(=O)C(c2ccccc2)(c2ccccc2)N1 [Phenytoin] | 31.60 | 0.63 |  | 30.20 | 30.18 | 0.03 | 0.54 |  |  |  |
| COc1cnc(NS(=O)(=O)c2ccc(N)cc2)nc1 [Sulfameter] | 3.70 | 2.44 |  | 7.09 | 6.92 | -0.61 | 4.09 |  |  |  |
| CC(C(=O)O)c1cccc(Oc2ccccc2)c1 (centres unmarked) [Fenoprofen] | 17.20 | 2.32 |  | 28.26 | 27.17 | -1.27 | 1.58 |  |  |  |
| CCCN(CCC)S(=O)(=O)c1ccc(C(=O)O)cc1 [Probenecid] | 20.10 | 0.49 |  | 24.38 | 23.45 | -0.75 | 0.76 |  |  |  |
| Nc1cc(N2CCCCC2)nc(N)[n+]1[O-] [Minoxidil] | 19.00 | 3.41 |  | 16.08 | 15.93 | -0.04 | 3.16 |  |  |  |
| C#C[C@]1(O)CC[C@H]2[C@@H]3CCc4cc(O)ccc4[C@H]3CC[C@@]21C [Ethinyl estradiol] | 46.80 | 0.50 |  | 45.23 | 45.30 | 0.39 | 0.46 |  |  |  |
| COC1=CC(=O)C[C@@H](C)[C@]12Oc1c(Cl)c(OC)cc(OC)c1C2=O [Griseofulvin] | 33.10 | 0.80 |  | 30.98 | 31.06 | 0.12 | 0.77 |  |  |  |
| Cc1ccc(C)c(OCCCC(C)(C)C(=O)O)c1 [Gemfibrozil] | 32.90 | 4.05 |  | 34.53 | 33.70 | -1.34 | 3.32 |  |  |  |
| Cc1onc(-c2c(F)cccc2Cl)c1C(=O)N[C@@H]1C(=O)N2[C@@H]1SC(C)(C)[C@@H]2C(=O)O [Floxacillin] | 23.40 | 0.65 |  | 24.59 | 23.76 | -0.56 | 0.56 |  |  |  |
| Cc1c(Cl)cccc1Nc1ccccc1C(=O)O [Tolfenamic Acid] | 36.60 | 6.60 |  | 41.53 | 40.72 | -0.76 | 2.46 |  |  |  |
| CC(C)(C)NCC(O)COc1cccc2c1CC(O)C(O)C2 (centres unmarked) [Nadolol] | 20.20 | 3.55 |  | 19.23 | 19.89 | -0.33 | 2.93 |  |  |  |
| C[C@H]1C[C@@H]2[C@H]([C@@H](O)C[C@@]3(C)[C@H]2CC[C@]3(O)C(=O)CO)[C@@]2(C)C=CC(=O)C=C12 [Methylprednisolone] | 32.10 | 0.28 |  | 30.77 | 30.91 | 0.16 | 0.76 |  |  |  |
| C=CCOc1ccc(CC(=O)O)cc1Cl [Alclofenac] | 17.80 | 5.40 |  | 21.63 | 20.47 | -1.1 | 5.11 |  |  |  |
| Cc1ncc([N+](=O)[O-])n1CCO [Metronidazole] | -3.30 | 0.72 |  | -3.24 | -2.71 | -0.25 | 0.66 |  |  |  |
| CC(C)(C)NC(=O)[C@H]1CC[C@H]2[C@@H]3CC[C@H]4NC(=O)C=C[C@]4(C)[C@H]3CC[C@]12C [Finasteride] |  | 3.55 |  | 37.17 | 37.15 | 0.3 | 3.62 |  |  |  |
| CCC1(c2ccccc2)C(=O)NCNC1=O [Primidone] | 8.90 | 4.01 |  | 10.49 | 10.31 | -0.15 | 3.44 |  |  |  |
| C[C@]12C=CC(=O)C=C1CC[C@@H]1[C@@H]2C(=O)C[C@@]2(C)[C@H]1CC[C@]2(O)C(=O)CO [Prednisone] |  | 0.42 |  | 25.13 | 25.25 | 0.05 | 0.62 |  |  |  |
| COC(=O)C1=C(C)NC(C)=C(C(=O)OCCN(C)Cc2ccccc2)C1c1cccc([N+](=O)[O-])c1 (centres unmarked) [Nicardipine] | 45.90 | 1.95 |  | 43.73 | 43.82 | 0.47 | 1.41 |  | very similar | 45.0 |
| Nc1ccc(S(=O)(=O)Nc2ccc(Cl)nn2)cc1 [Sulfachlorpyridazine] | 6.00 | 2.20 |  | 10.83 | 10.08 | -0.76 | 2.04 |  |  |  |
| CC(C(=O)O)c1ccc(-c2ccccc2)c(F)c1 (centres unmarked) [Flurbiprofen] | 26.80 | 4.01 |  | 30.89 | 30.23 | -1.56 | 1.26 |  |  |  |
| NS(=O)(=O)c1cc2c(cc1Cl)NCNS2(=O)=O [Hydrochlorothiazide] | 15.90 | 1.05 |  | 13.08 | 13.04 | -0.13 | 0.92 |  |  |  |
| CC1=NS(=O)(=O)c2cc(Cl)ccc2N1 [Diazoxide] | 24.70 | 5.58 |  | 23.44 | 23.39 | -0.16 | 5.42 |  |  |  |
| COc1ccc(NS(=O)(=O)c2ccc(N)cc2)nn1 [Sulfamethoxypyridazine] |  | 4.27 |  | 11.16 | 11.11 | -0.59 | 2.33 |  |  |  |
| NC(=O)N1c2ccccc2C=Cc2ccccc21 [Carbamazepine] | 26.50 | 1.81 |  | 27.07 | 27.18 | -0.09 | 1.99 |  | very similar | 27.0 |
| CCOC(=O)C1=C(C)NC(C)=C(C(=O)OC)C1c1cccc([N+](=O)[O-])c1 (centres unmarked) [Nitrendipine] | 40.50 | 2.70 |  | 39.19 | 39.06 | 0.16 | 2.35 |  |  |  |
| CCn1nc(C(=O)O)c(=O)c2cc3c(cc21)OCO3 [Cinoxacin] |  | 0.91 |  | 6.67 | 5.31 | -0.42 | 0.79 |  |  |  |
| COC(=O)C1=C(C)NC(C)=C(C(=O)OC(C)C)C1c1cccc2nonc12 (centres unmarked) [Isradipine] | 40.00 | 3.30 |  | 39.16 | 39.11 | 0.13 | 2.9 |  |  |  |
